Measurements from ChEMBL document CHEMBL1146350, “Synthesis of some new bioactive 3-amino-2-mercapto-5,6,7,8-tetrahydro[1]benzothieno[2,3-d]pyrimidin-4(3H)-one derivatives” (2007).
≈ marks a conversion by molar mass, not a printed value. Calls of active or inactive are those of the source. No cut-off for these calls is given here.

Tests used:
Staphylococcus aureus = assay: Antibacterial activity against Staphylococcus aureus ATCC 25923 by disc diffusion method; assay type: functional; details: for MIC: Staphylococcus aureus, ATCC 25923, read-out: MIC
Trichophyton benhamiae = assay: Antifungal activity against Trichophyton mentagrophytes by serial plate dilution method; assay type: functional, Arthroderma benhamiae; details: for MIC: Trichophyton benhamiae
Mus musculus [1] = assay: Anticonvulsant activity in Swiss Albino mouse assessed as mortality at 50 mg/kg, po by PTZ induced seizure test; assay type: functional, organism-based; design: dose 50 mg/kg
Mus musculus [2] = assay: Anticonvulsant activity in Swiss Albino mouse assessed as duration of seizure at 50 mg/kg, po by PTZ induced seizure test; assay type: functional
Escherichia coli = assay: Antibacterial activity against Escherichia coli ATCC 25922 by disc diffusion method; assay type: functional; details: for MIC: Escherichia coli, ATCC 25922
Mus musculus [3] = assay: Anticonvulsant activity in Swiss Albino mouse assessed as duration of seizure at 2 mg/kg, po by PTZ induced seizure test; assay type: functional
Klebsiella pneumoniae = assay: Antibacterial activity against Klebsiella pneumoniae by disc diffusion method; assay type: functional; details: for MIC: Klebsiella pneumoniae
Pseudomonas aeruginosa = assay: Antibacterial activity against Pseudomonas aeruginosa ATCC 27853 by disc diffusion method; assay type: functional; details: for MIC: Pseudomonas aeruginosa, ATCC 27853
Aspergillus fumigatus = assay: Antifungal activity against Aspergillus fumigatus NCIM 902 by serial plate dilution method; assay type: functional; details: for MIC: Aspergillus fumigatus, NCIM 902
Aspergillus flavus = assay: Antifungal activity against Aspergillus flavus NCIM 524 by serial plate dilution method; assay type: functional; details: for MIC: Aspergillus flavus, NCIM 524
Talaromyces marneffei = assay: Antifungal activity against Penicillium marneffei by serial plate dilution method; assay type: functional; details: for MIC: Talaromyces marneffei
Rattus norvegicus [4] = assay: Antiinflammatory activity in Wister Albino rat assessed as inhibition of paw edema at 50 mg/kg, po after 3hrs; assay type: functional
Rattus norvegicus [5] = assay: Antiinflammatory activity in Wister Albino rat assessed as inhibition of paw edema at 1.5 mg/kg, po after 3hrs; assay type: functional
Mus musculus [6] = organism: Mus musculus; assay: Effect on learning and memory in Swiss Albino mouse assessed as latent period on first day; assay type: functional
Mus musculus [7] = assay: Antianxiety study in Swiss Albino mouse assessed as time spent in open arm at 50 mg/kg by elevated plus maze model; assay type: functional
Mus musculus [8] = assay: Antianxiety study in Swiss Albino mouse assessed as time spent in close arm at 50 mg/kg by elevated plus maze model; assay type: functional
Mus musculus [9] = assay: Antianxiety study in Swiss Albino mouse assessed as ratio of number of entreis in open arm to total entries at 50 mg/kg by elevated plus maze test; assay type: functional
Mus musculus [10] = assay: Effect on coordination in Swiss Albino mouse at 50 mg/kg by rotarod accelorod test; assay type: functional
Mus musculus [11] = organism: Mus musculus; assay: Effect on learning and memory in Swiss Albino mouse assessed as latent period on second day; assay type: functional
Mus musculus [12] = assay: Anticonvulsant activity in Swiss Albino mouse assessed as latency period at 50 mg/kg, po by PTZ induced seizure test; assay type: functional, organism-based; design: dose 50 mg/kg

SMILES | inhibition zone (IZ) (Staphylococcus aureus) [mm] | MIC (Staphylococcus aureus) [µg/mL] | inhibition zone (IZ) (Trichophyton benhamiae) [mm] | MIC (Trichophyton benhamiae) [µg/mL] | Activity (Mus musculus [1]) | Activity (Mus musculus [2]) [s] | inhibition zone (IZ) (Escherichia coli) [mm] | MIC (Escherichia coli) [µg/mL] | Activity (Mus musculus [3]) [s] | inhibition zone (IZ) (Klebsiella pneumoniae) [mm] | MIC (Klebsiella pneumoniae) [µg/mL] | inhibition zone (IZ) (Pseudomonas aeruginosa) [mm] | MIC (Pseudomonas aeruginosa) [µg/mL] | inhibition zone (IZ) (Aspergillus fumigatus) [mm] | MIC (Aspergillus fumigatus) [µg/mL] | inhibition zone (IZ) (Aspergillus flavus) [mm] | MIC (Aspergillus flavus) [µg/mL] | inhibition zone (IZ) (Talaromyces marneffei) [mm] | MIC (Talaromyces marneffei) [µg/mL] | inhibition in vivo at 50 mg/kg (Rattus norvegicus [4]) [%] | other results
Nn1c(SCC(=O)c2cc3ccccc3oc2=O)nc2sc3c(c2c1=O)CCCC3 | 22 | 6.25 (≈ 14.2 µM) | 8 | > 100 | inactive | 30 | 18 | 12.5 (≈ 28.4 µM) | 56 | 22 | < 6.25 | 8 | > 100 | 8 | > 100 | 12 | 80 (≈ 182 µM) | 6 | > 100 | 6.67 | 
Nn1c(SCC(=O)c2ccccc2)nc2sc3c(c2c1=O)CCCC3 | 18 | 12.5 (≈ 33.6 µM) | 8 | > 100 |  |  | 8 | > 100 |  | 8 | > 100 | 8 | > 100 | 8 | > 100 | 10 | 80 (≈ 215 µM) | 6 | > 100 | 4.44 | 
O=c1c2c3c(sc2nc2sc(=S)[nH]n12)CCCC3 |  |  |  |  | inactive | 39 |  |  | 56 |  |  |  |  |  |  |  |  |  |  | 7.69 | 
COc1ccc2c(c1)c(CC(=O)O)c(C)n2C(=O)c1ccc(Cl)cc1 [INDOMETHACIN] |  |  |  |  |  |  |  |  |  |  |  |  |  |  |  |  |  |  |  |  | inhibition in vivo at 1.5 mg/kg (Rattus norvegicus [5]): 53.3%
O=c1c2c3c(sc2nc2sc(-c4ccccc4)nn12)CCCC3 | 18 | 60 (≈ 177 µM) | 7 | > 100 | inactive | 65 | 9 | 100 (≈ 295 µM) | 58 | 16 | 60 (≈ 177 µM) | 18 | 60 (≈ 177 µM) | 18 | 12.5 (≈ 36.8 µM) | 7 | > 100 | 16 | 12.5 (≈ 36.8 µM) | 24.4 | 
Cc1cc(C)cc(-c2nn3c(=O)c4c5c(sc4nc3s2)CCCC5)c1 | 8 | > 100 | 9 | 80 (≈ 218 µM) | Active | 0 | 16 | 60 (≈ 163 µM) | 68 | 20 | 10 (≈ 27.2 µM) | 18 | 60 (≈ 163 µM) | 18 | 12.5 (≈ 34 µM) | 7 | > 100 | 18 | 12.5 (≈ 34 µM) | 31.1 | Activity (Mus musculus [6]): 34 s; Activity (Mus musculus [7]): 56 s; Activity (Mus musculus [8]): 231 s; Activity (Mus musculus [9]): 7.14%; Activity (Mus musculus [10]): 256 s; Activity (Mus musculus [11]): 18 s
Cc1cccc(-c2nn3c(=O)c4c5c(sc4nc3s2)CCCC5)c1 | 20 | 10 (≈ 28.3 µM) | 4 | > 100 | inactive | 220 | 8 | > 100 | 51 | 10 | 80 (≈ 226 µM) | 20 | 10 (≈ 28.3 µM) | 18 | 12.5 (≈ 35.4 µM) | 6 | > 100 | 18 | 12.5 (≈ 35.4 µM) | 51.1 | 
O=c1c2c3c(sc2nc2sc(-c4ccc([N+](=O)[O-])cc4)nn12)CCCC3 | 8 | > 100 | 6 | > 100 | inactive | 40 | 8 | > 100 | 56 | 20 | 10 (≈ 26 µM) | 9 | 100 (≈ 260 µM) | 5 | > 100 | 10 | 80 (≈ 208 µM) | 6 | > 100 | 48.9 | 
CCCc1nn2c(=O)c3c4c(sc3nc2s1)CCCC4 | 20 | 10 (≈ 32.7 µM) | 6 | > 100 | inactive | 75 | 18 | 10 (≈ 32.7 µM) | 73 | 26 | 6.25 (≈ 20.5 µM) | 22 | 10 (≈ 32.7 µM) | 26 | < 6.25 | 28 | < 6.25 | 19 | 12.5 (≈ 40.9 µM) | 30.8 | 
CN1C(=O)CN=C(c2ccccc2)c2cc(Cl)ccc21 |  |  |  |  |  |  |  |  |  |  |  |  |  |  |  |  |  |  |  |  | Activity (Mus musculus [12]): Active
COc1ccc(C(=O)CSc2nc3sc4c(c3c(=O)n2N)CCCC4)cc1 | 8 | > 100 | 4 | > 100 | inactive | 450 | 8 | > 100 | 41 | 18 | 12.5 (≈ 31.1 µM) | 8 | > 100 | 16 | 12.5 (≈ 31.1 µM) | 12 | 80 (≈ 199 µM) | 8 | > 100 |  | 
Cc1nn2c(=O)c3c4c(sc3nc2s1)CCCC4 | 20 | 10 (≈ 36.1 µM) | 7 | > 100 | Active | 0 | 18 | 10 (≈ 36.1 µM) | 3600 | 20 | 10 (≈ 36.1 µM) | 22 | 6.25 (≈ 22.5 µM) | 16 | 12.5 (≈ 45.1 µM) | 12 | 80 (≈ 288 µM) | 16 | 12.5 (≈ 45.1 µM) | 34.6 | Activity (Mus musculus [6]): 39 s; Activity (Mus musculus [7]): 4 s; Activity (Mus musculus [8]): 285 s; Activity (Mus musculus [9]): 16.67%; Activity (Mus musculus [10]): 284 s; Activity (Mus musculus [11]): 25 s
CCc1nn2c(=O)c3c4c(sc3nc2s1)CCCC4 | 8 | > 100 | 6 | > 100 | inactive | 185 | 10 | 80 (≈ 275 µM) | 110 | 22 | 10 (≈ 34.3 µM) | 18 | 10 (≈ 34.3 µM) | 6 | > 100 | 8 | > 100 | 6 | > 100 | 51.1 | 
